The target in assay [1] is T1, human GPR40 (Homo sapiens, UniProt O14842). In words: FDSS-based intracellular calcium assay (Human GRP40 in vitro assay). Conditions: cells expressing GPR40, intracellular Ca2+ response, FDSS reader; read-out: hGPR40 EC50. Also on record: 3xFLAG; expressed in transfected cells. The format is cell-based. In short, it runs like this:
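GPR40-expressing cells, plated overnight in serum-free phenol red-free DMEM, loaded with Fluo-3 in HBSS with 1.7 mM probenecid for 30 min at 37° C. Compounds in DMSO, diluted in assay buffer, added as 3× solutions; intracellular Ca^2+ response read on FDSS.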
A general note: Calcium assays in cells follow changes in intracellular calcium, usually with a dye or a luminescent sensor.

The target in assay [2] is T1, human GPR40.

The structures appear in SMILES notation. Where a name gives a salt, the structure may show the parent alone. Read-outs that look alike come from different tables or passages of the source.

As a reminder, the EC50 is the concentration giving half of the maximal effect.

T1 sequence (O14842 whole entry): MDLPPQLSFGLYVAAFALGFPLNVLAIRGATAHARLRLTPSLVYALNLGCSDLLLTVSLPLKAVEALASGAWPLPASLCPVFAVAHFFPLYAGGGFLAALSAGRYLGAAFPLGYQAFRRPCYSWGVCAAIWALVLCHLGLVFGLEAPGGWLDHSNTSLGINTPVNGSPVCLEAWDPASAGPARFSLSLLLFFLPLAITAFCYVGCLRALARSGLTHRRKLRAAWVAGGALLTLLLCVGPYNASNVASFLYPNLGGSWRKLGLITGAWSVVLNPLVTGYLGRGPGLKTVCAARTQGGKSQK

As for `CCOc1ccc(F)c(N2CCC(Oc3ccc(N4C[C@H](C(F)(F)F)C[C@@H]4CC(=O)O)cc3)C(CC(C)C)C2)c1` (single isomer, unassigned) [Example 35, Isomer 2, HCl], the half-maximal effective concentration (EC50) at human GPR40 [1] amounted to 330 nM; on human GPR40 [2], 17 nM.
Turning to `COc1ccc(F)c(N2CCC(Oc3ccc(N4CCCC4CC(=O)O)cc3)CC2)c1` (single isomer, unassigned) [Example 48, Isomer 2, 2-(1-(4-((1-(2-Fluoro-5-methoxyphenyl)piperidin-4-yl)oxy)phenyl)pyrrolidin-2-yl)acetic acid], the EC50 on human GPR40 [1] turned out to be 1400 nM; on human GPR40 [2] it was 2500 nM.
In the case of `COc1ccc(F)c(N2CCC(Oc3ccc(N4C[C@H](OC)C[C@@H]4CC(=O)O)cc3)C(C)C2)c1` (single isomer, unassigned) [Example 52, Isomer 2], the concentration giving a half-maximal response (EC50) on human GPR40 [1] was determined as 600 nM; at human GPR40 [2] it was 140 nM.
Take `COc1ccc(F)c(N2CCC(Oc3ccc(N4CC(F)(F)C[C@@H]4CC(=O)O)cc3)C(C)C2)c1` (single isomer, unassigned) [Example 53, Isomer 2, HCl]: the EC50 on human GPR40 [1] and on human GPR40 [2] was 49 nM throughout.
In the case of `COc1ccc(C2CCCC2(C)C)c(N2CCC(Oc3ccc(N4C[C@H](OC)C[C@@H]4CC(=O)O)cc3)CC2)c1` (single isomer, unassigned) [Example 65, Isomer 1], the half-maximal effective concentration (EC50) on human GPR40 [1] turned out to be 33 nM; at human GPR40 [2] it was 10 nM.
Consider `COc1cc(N2CCC(Oc3ccc(N4C[C@H](OC)[C@@H](C)[C@@H]4CC(=O)O)cn3)CC2)c(C2CCCC2(C)C)cn1` (single isomer, unassigned) [Example 151, Isomer 1, HCl], for which the EC50 at human GPR40 [1] worked out at 38 nM; on human GPR40 [2], 4 nM.
The like results for `COc1ccc(F)c(N2CCC(Oc3ccc(N4C[C@H](C(F)(F)F)C[C@@H]4CC(=O)O)cc3)CC2)c1` [Example 1, 2-((2R,4R)-1-(4-((1-(2-Fluoro-5-methoxyphenyl)piperidin-4-yl)oxy)phenyl)-4-(trifluoromethyl)pyrrolidin-2-yl)acetic acid, HCl] were, in that order, 210 nM and 310 nM.
For `COc1ccc(F)c(N2CCC(Oc3ccc(N4C[C@H](OC)C[C@@H]4CC(=O)O)cc3)CC2)c1` [Example 4, 2-((2R,4R)-1-(4-((1-(2-Fluoro-5-methoxyphenyl)piperidin-4-yl)oxy)phenyl)-4-methoxypyrrolidin-2-yl)acetic acid, HCl] the same measures were 170 nM and 240 nM.
On to `COc1ccc(F)c(N2CCC(Cc3ccc(N4C[C@H](C(F)(F)F)C[C@@H]4CC(=O)O)cc3)CC2)c1` [Example 16, 2-((2R,4R)-1-(4-((1-(2-Fluoro-5-methoxyphenyl)piperidin-4-yl)methyl)phenyl)-4-(trifluoromethyl)pyrrolidin-2-yl)acetic acid, HCl], for which the concentration for a half-maximal effect (EC50) at human GPR40 [1] turned out to be 530 nM; on human GPR40 [2], 73 nM.
As to `COc1ccc(F)c(N2CCC(Oc3ccc(N4C[C@H](OC(C)C)C[C@@H]4CC(=O)O)cc3)C(C)C2)c1` (stereo partly drawn) [Example 38, 2-((2R,4R)-1-(4-(((3,4-trans)-1-(2-Fluoro-5-methoxyphenyl)-3-methylpiperidin-4-yl)oxy)phenyl)-4-isopropoxypyrrolidin-2-yl)acetic acid, TFA], the EC50 was 69 nM on human GPR40 [1] and 73 nM on human GPR40 [2].
The like results for `CCOc1ccc(F)c(N2CCC(Oc3ccc(N4CC(C)(OC)C[C@@H]4CC(=O)O)cc3)C(C)C2)c1` (stereo partly drawn) [Example 47, 2-((2R)-1-(4-(((3,4-trans)-1-(5-Ethoxy-2-fluorophenyl)-3-methylpiperidin-4-yl)oxy)phenyl)-4-methoxy-4-methylpyrrolidin-2-yl)acetic acid, HCl] were, in that order, 170 nM and 18 nM.
Regarding `COc1ccc(C)c(N2CCC(Oc3ccc(N4C[C@H](OC)C[C@@H]4CC(=O)O)cc3)CC2)c1` [Example 57, 2-((2R,4R)-4-Methoxy-1-(4-((1-(5-methoxy-2-methylphenyl)piperidin-4-yl)oxy)phenyl)pyrrolidin-2-yl)acetic acid, TFA], the 50% effective concentration (EC50) at human GPR40 [1] is 160 nM; on human GPR40 [2], 83 nM.
For `COc1ccc(C2CC2)c(N2CCC(Oc3ccc(N4C[C@H](OC)C[C@@H]4CC(=O)O)cc3)CC2)c1` [Example 59, 2-((2R,4R)-1-(4-(1-(2-Cyclopropyl-5-methoxyphenyl)piperidin-4-yloxy)phenyl)-4-methoxypyrrolidin-2-yl)acetic acid, TFA] the same measures were 290 nM and 38 nM.
For the compound `COc1ccc(C2CCCC2)c(N2CCC(Oc3ccc(N4C[C@H](OC)C[C@@H]4CC(=O)O)cc3)CC2)c1` [Example 61, 2-((2R,4R)-1-(4-(1-(2-Cyclopentyl-5-methoxyphenyl)piperidin-4-yloxy)phenyl)-4-methoxypyrrolidin-2-yl)acetic acid], the EC50 at human GPR40 [1] came to 120 nM; at human GPR40 [2] it was 16 nM.
Take `COc1ccc(CCC(C)(C)C)c(N2CCC(Oc3ccc(N4C[C@H](OC)C[C@@H]4CC(=O)O)cc3)CC2)c1` [Example 62, 2-((2R,4R)-1-(4-(1-(2-(3,3-Dimethylbutyl)-5-methoxyphenyl)piperidin-4-yloxy)phenyl)-4-methoxypyrrolidin-2-yl)acetic acid]: the EC50 amounted to 89 nM on human GPR40 [1] and 13 nM at human GPR40 [2].
For `CCOc1ccc(F)c(N2CCC(Oc3ccc(N4C[C@H](C(F)(F)F)C[C@@H]4CC(=O)O)cc3)CC2)c1` [Example 85, 2-((2R,4R)-1-(4-((1-(5-Ethoxy-2-fluorophenyl)piperidin-4-yl)oxy)phenyl)-4-(trifluoromethyl)pyrrolidin-2-yl)acetic acid] the same measures were 320 nM and 70 nM.
On to `COc1cc(N2CCC(Oc3ccc(N4C[C@H](OC)[C@@H](C)[C@@H]4CC(=O)O)cn3)C(C)C2)c(Cl)cn1` (stereo partly drawn) [Example 91, 2-((2S,3S,4R)-1-(6-(((3,4-trans)-1-(5-Chloro-2-methoxypyridin-4-yl)-3-methylpiperidin-4-yl)oxy)pyridin-3-yl)-4-methoxy-3-methylpyrrolidin-2-yl)acetic acid, HCl], for which the concentration giving a half-maximal response (EC50) at human GPR40 [1] came out at 190 nM; on human GPR40 [2], 18 nM.
The like results for `COc1cc(N2CCC(Oc3ccc(N4C[C@H](OC)C[C@@H]4CC(=O)O)cc3)CC2)c(F)cn1` [Example 96, 2-((2R,4R)-1-(4-((1-(5-Fluoro-2-methoxypyridin-4-yl)piperidin-4-yl)oxy)phenyl)-4-methoxypyrrolidin-2-yl)acetic acid, diethylammonium salt] were, in that order, 840 nM and 520 nM.
As for `COc1cc(N2CCC(Oc3ccc(N4C[C@H](OC)[C@@H](C)[C@@H]4CC(=O)O)cc3F)C(C)C2)c(Cl)cn1` (stereo partly drawn) [Example 98, 2-((2S,3S,4R)-1-(4-(((3,4-trans)-1-(5-Chloro-2-methoxypyridin-4-yl)-3-methylpiperidin-4-yl)oxy)-3-fluorophenyl)-4-methoxy-3-methylpyrrolidin-2-yl)acetic acid], the concentration for a half-maximal effect (EC50) at human GPR40 [1] came to 102 nM; at human GPR40 [2] it was 100 nM.
In the case of `COc1cc(N2CCC(Oc3ccc(N4C[C@H](OC)[C@@H](C)[C@@H]4CC(=O)O)cc3F)CC2)c(Cl)cn1` [Example 99, 2-((2S,3S,4R)-1-(4-((1-(5-Chloro-2-methoxypyridin-4-yl)piperidin-4-yl)oxy)-3-fluorophenyl)-4-methoxy-3-methylpyrrolidin-2-yl)acetic acid], the figures for the half-maximal effective concentration (EC50) on human GPR40 [1] and at human GPR40 [2] were 289 nM and 290 nM, respectively.
The like results for `COc1cc(N2CCC(Cc3ccc(N4C[C@H](OC)C[C@@H]4CC(=O)O)cc3)CC2)c(Cl)cn1` [Example 102, 2-((2R,4R)-1-(4-((1-(5-Chloro-2-methoxypyridin-4-yl)piperidin-4-yl)methyl)phenyl)-4-methoxypyrrolidin-2-yl)acetic acid] were, in that order, 952 nM and 950 nM.
With `COc1cc(N2CCC(Oc3ccc(N4C[C@H](O)[C@@H](C)[C@@H]4CC(=O)O)c(F)c3)C(C)C2)c(Cl)cn1` (stereo partly drawn) [Example 115, 2-((2S,3S,4R)-1-(4-(((3,4-trans)-1-(5-Chloro-2-methoxypyridin-4-yl)-3-methylpiperidin-4-yl)oxy)-2-fluorophenyl)-4-hydroxy-3-methylpyrrolidin-2-yl)acetic acid], the EC50 at human GPR40 [1] amounted to 1620 nM; on human GPR40 [2], 1600 nM.
For `CCOc1ccc(F)c(N2CCC(Oc3ccc(N4C[C@H](OC)[C@@H](C)[C@@H]4CC(=O)O)cn3)C(C)C2)c1` (stereo partly drawn) [Example 117, 2-((2S,3S,4R)-1-(6-(((3,4-trans)-1-(5-Ethoxy-2-fluorophenyl)-3-methylpiperidin-4-yl)oxy)pyridin-3-yl)-4-methoxy-3-methylpyrrolidin-2-yl)acetic acid, HCl], the EC50 at human GPR40 [1] came out at 140 nM; at human GPR40 [2], 14 nM.
With `COc1cc(N2CCC(Oc3ccc(N4C[C@H](OC)[C@@H](C)[C@@H]4CC(=O)O)cc3)C(C)C2)c(Cl)cn1` (stereo partly drawn) [Example 119, 2-((2S,3S,4R)-1-(4-(((3,4-trans)-1-(5-Chloro-2-methoxypyridin-4-yl)-3-methylpiperidin-4-yl)oxy)phenyl)-4-methoxy-3-methylpyrrolidin-2-yl)acetic acid, HCl], the figures for the concentration for a half-maximal effect (EC50) at human GPR40 [1] and at human GPR40 [2] were 75 nM and 11 nM, respectively.
On to `CCOc1ccc(F)c(N2CCC(Oc3ccc(N4C[C@H](OC)[C@@H](C)[C@@H]4CC(=O)O)cc3)CC2)c1` [Example 121, 2-((2S,3S,4R)-1-(4-((1-(5-Ethoxy-2-fluorophenyl)piperidin-4-yl)oxy)phenyl)-4-methoxy-3-methylpyrrolidin-2-yl)acetic acid, TFA], for which the EC50 on human GPR40 [1] turned out to be 140 nM; on human GPR40 [2], 42 nM.
Turning to `CCOc1ccc(F)c(N2CCC(Oc3ccc(N4C[C@H](c5ccc(OC)nc5)C[C@@H]4CC(=O)O)cc3)CC2)c1` [Example 123, 2-((2R,4S)-1-(4-((1-(5-Ethoxy-2-fluorophenyl)piperidin-4-yl)oxy)phenyl)-4-(6-methoxypyridin-3-yl)pyrrolidin-2-yl)acetic acid, TFA], the EC50 at human GPR40 [1] was 270 nM; at human GPR40 [2], 51 nM.
